According to US10047105B2, “Gyrase inhibitors” (Merck Sharp & Dohme Corp., priority 2009, dated 2018):
≈ marks a conversion by molar mass, not a printed value.

Tests used:
Assay type in all cases: cell-based
S. aureus ATCC 13709 = assay: MIC, antibacterial potency, S. aureus; conditions: S. aureus (SA); in µg/mL
S. pneumoniae ATCC 51916 = assay: MIC, S. pneumoniae; conditions: S. pneumoniae (Spn52); in µg/mL
E. coli 8 ATCC 25922 = assay: MIC, E. coli 8 (wt); conditions: E. coli 8 (EC8)

Row | MIC, SA (S. aureus ATCC 13709) | MIC Spn52 (S. pneumoniae ATCC 51916) | MIC EC8 (E. coli 8 ATCC 25922) | SMILES
1 | 1 | 2 | 32 µg/mL (≈ 75.3 µM) | CCc1[nH]c2nc(Sc3ccc4cccnc4c3)nc(N3CC[C@@H](N)C3)c2c1Cl [700,991]
2 | <=0.5 | <=0.5 | > 64 µg/mL | CCc1[nH]c2nc(Sc3ccc4cccnc4c3)nc(N3CC4C(N)C4C3)c2c1Cl (stereo not drawn) [700,992]
3 | <=0.5 | 2 | 16 µg/mL (≈ 36.3 µM) | CCc1[nH]c2nc(Sc3ccc4ccc[n+]([O-])c4c3)nc(N3CC[C@@H](N)C3)c2c1Cl [700,993]
4 | <=0.5 | <=0.5 | 8 µg/mL (≈ 17.7 µM) | CCc1[nH]c2nc(Sc3ccc4ccc[n+]([O-])c4c3)nc(N3CC4C(N)C4C3)c2c1Cl (stereo not drawn) [700,994]
5 | >64 | >64 | 64 µg/mL (≈ 126 µM) | NC1CN(c2ncnc3cc(Sc4nc(N5CC[C@@H](N)C5)c5c(Cl)c(C6CC6)[nH]c5n4)ccc23)C1 [700,995]
6 | <=0.5 | <=0.5 | > 64 µg/mL | CCc1[nH]c2nc(Oc3cnc4c(c3)ncn4C)nc(Oc3cncc(C#N)c3)c2c1Br [700,996]
7 | <=0.5 | 1 | > 64 µg/mL | CCc1[nH]c2nc(Oc3ccc4nccnc4c3)nc(Oc3ccc4c(c3)ncn4C)c2c1Br [700,998]
8 | 2 | 2 | > 64 µg/mL | CCc1[nH]c2nc(Oc3cncc(C#N)c3)nc(N3CC[C@@H](NC(C)=O)C3)c2c1Cl [700,999]
9 | 4 | 8 | 64 µg/mL (≈ 156 µM) | CCc1[nH]c2nc(Oc3ccc4nccnc4c3)nc(N3CC[C@@H](N)C3)c2c1Cl [701,000]
10 | 4 | 8 | > 64 µg/mL | CCc1[nH]c2nc(Oc3ccc4nccnc4c3)nc(N3CC[C@@H](NC(C)=O)C3)c2c1Cl [701,001]
11 | 4 | >64 | > 64 µg/mL | CCc1[nH]c2nc(Sc3ccc(/C=C/C(=O)O)c(F)c3)nc(N3CC[C@@H](N)C3)c2c1Cl [701,002]
12 | >64 | 32 | > 64 µg/mL | CCc1[nH]c2nc(Sc3cnc4cccnc4c3)nc(N3CCNCCNCC3)c2c1Cl [701,003]
13 | 32 | >64 | > 64 µg/mL | CCc1[nH]c2nc(Sc3cnc4cccnc4c3)nc(N3C[C@H](C(=O)NC4CNC4)[C@@H](N)C3)c2c1Cl [701,004]
14 | <=0.5 | <=0.5 | 16 µg/mL (≈ 37.6 µM) | CCc1[nH]c2nc(Sc3ccc4nccnc4c3)nc(N3CC[C@@H](N)C3)c2c1Cl [701,005]
15 | <=0.5 | <=0.5 | > 64 µg/mL | CCc1[nH]c2nc(Sc3ccc4nccnc4c3)nc(N3C[C@@H]4C(N)[C@@H]4C3)c2c1Cl (stereo partly drawn) [701,006]
16 | <=0.5 | 2 | > 64 µg/mL | CCc1[nH]c2nc(Oc3ccc4nccnc4c3)nc(Oc3ccc4ncn(C)c4c3)c2c1Cl [701,007]
17 | <=0.5 | 1 | > 16 µg/mL | CCc1[nH]c2nc(Sc3ccc4cc(C#N)c[n+]([O-])c4c3)nc(N3CC4C(N)C4C3)c2c1Cl (stereo not drawn) [701,010]

Further lines, the compound ahead of its results:

Row | SMILES | MIC, SA (S. aureus ATCC 13709) | MIC Spn52 (S. pneumoniae ATCC 51916) | MIC EC8 (E. coli 8 ATCC 25922)
18 | CCc1[nH]c2nc(Oc3cccc(C#N)c3)nc(C(C)(NO)NO)c2c1Cl [700,954] | >32 | >32 | > 32 µg/mL
19 | CCc1[nH]c2nc(Sc3ccc4c(N5CC[C@@H](N)C5)nc(C(=O)O)nc4c3)nc(N3CC[C@@H](N)C3)c2c1Cl [700,955] | 8 | >64 | 16 µg/mL (≈ 28.9 µM)
20 | CCc1[nH]c2nc(Sc3ccc4c(N5CC(CN)C5)nc(C)nc4c3)nc(N3CC4C(C3)C4(N)C(N)=O)c2c1Cl (stereo not drawn) [700,956] | 8 | 32 | > 64 µg/mL
21 | CCc1[nH]c2nc(Sc3cnc4nccnc4c3)nc(N3CC4CC(O)C4C3)c2c1Cl (stereo not drawn) [700,957] | <=0.5 | 1 | > 32 µg/mL
22 | CCc1[nH]c2nc(Sc3cnc4cccnc4c3)nc(N3C[C@@H]4NCCO[C@H]4C3)c2c1Cl [700,958] | 2 | 4 | > 32 µg/mL
23 | CCc1[nH]c2nc(Sc3cnc4cccnc4c3)nc(N3C[C@@H]4NCCO[C@@H]4C3)c2c1Cl [700,959] | 2 | 2 | > 64 µg/mL
24 | CCc1[nH]c2nc(Sc3ccc4c(N5CC(N)C5)ncnc4c3)nc(N3C[C@@H]4[C@H](C3)[C@@]4(N)C(N)=O)c2c1Cl [700,960] | 2 | 2 | > 32 µg/mL
25 | CCc1[nH]c2nc(Oc3ccc4nccnc4c3)nc(C(C)=O)c2c1Cl [700,961] | 1 | 1 | > 64 µg/mL
26 | CCc1[nH]c2nc(Oc3ccc4nccnc4c3)nc(N(C)C)c2c1Cl [700,962] | <=0.5 | 2 | > 8 µg/mL
27 | CCc1[nH]c2nc(Oc3ccc4nccnc4c3)nc(N3CC(N)C3)c2c1Cl [700,963] | 1 | 4 | > 64 µg/mL
28 | CCc1[nH]c2nc(Oc3cnc4c(c3)ncn4C)nc(Oc3cncc(OC)c3)c2c1Br [700,964] | <=0.5 | <=0.5 | > 64 µg/mL
29 | CCc1[nH]c2nc(Oc3ccc4nccnc4c3)nc(Oc3cncnc3)c2c1Br [700,965] | <=0.5 | <=0.5 | 64 µg/mL (≈ 138 µM)
30 | CCc1[nH]c2nc(Oc3cncc(C#N)c3)nc(Oc3cccc(OC)c3)c2c1Br [700,966] | <=0.5 | <=0.5 | > 64 µg/mL
31 | CCc1[nH]c2nc(Sc3cncnc3)nc(N3CC4C(C3)C4(N)C(N)=O)c2c1Cl (stereo not drawn) [700,967] | <=0.5 | 4 | > 64 µg/mL
32 | CCc1[nH]c2nc(Sc3cnc(N)nc3)nc(N3CC4C(C3)C4(N)C(N)=O)c2c1Cl (stereo not drawn) [700,968] | 2 | >64 | > 64 µg/mL
33 | CCc1[nH]c2nc(Sc3cncc(C#N)c3)nc(N3CC4C(C3)C4(N)C(N)=O)c2c1Cl (stereo not drawn) [700,969] | <=0.5 | 2 | > 64 µg/mL
34 | CCc1[nH]c2nc(Sc3cc(C(=O)O)c4cnccc4c3)nc(N3CC[C@@H](N)C3)c2c1Cl [700,970] | 8 | 32 | > 64 µg/mL
35 | CCc1[nH]c2nc(Sc3ccc4cc5c([n+]([O-])c4c3)CCNC5)nc(N3CC4C(C3)C4(N)C(N)=O)c2c1Cl (stereo not drawn) [700,971] | <=0.5 | 2 | > 64 µg/mL

Row | SMILES | MIC, SA (S. aureus ATCC 13709) | MIC Spn52 (S. pneumoniae ATCC 51916) | MIC EC8 (E. coli 8 ATCC 25922)
36 | CCc1[nH]c2nc(Sc3ccc4cc5c([n+]([O-])c4c3)CCNC5)nc(N3CC4C(N)C4C3)c2c1Cl (stereo not drawn) [700,972] | <=0.5 | 1 | 4 µg/mL (≈ 7.87 µM)
37 | CCc1[nH]c2nc(Sc3ccc4c(c3)C(=O)NC4)nc(N3CC4C(C3)C4(N)C(N)=O)c2c1Cl (stereo not drawn) [700,973] | <=0.5 | 2 | > 64 µg/mL
38 | CCc1[nH]c2nc(Sc3ccc4c(c3)C(=O)NC4)nc(N3CC4C(N)C4C3)c2c1Cl (stereo not drawn) [700,974] | <=0.5 | 2 | 32 µg/mL (≈ 72.6 µM)
39 | NC(=O)C1(N)C2CN(c3nc(Sc4cnc5nccnc5c4)nc4[nH]c(C5CC5)c(Cl)c34)CC21 (stereo not drawn) [700,975] | 8 | 8 | > 64 µg/mL
40 | NC1C2CN(c3nc(Sc4cnc5nccnc5c4)nc4[nH]c(C5CC5)c(Cl)c34)CC12 (stereo not drawn) [700,976] | 4 | 2 | 8 µg/mL (≈ 17.7 µM)
41 | N[C@@H]1CCN(c2nc(Sc3cnc4nccnc4c3)nc3[nH]c(C4CC4)c(Cl)c23)C1 [700,977] | 16 | 4 | 8 µg/mL (≈ 18.2 µM)
42 | CC(C)(C)OC(=O)N[C@@H]1CCN(c2nc(Sc3cnc4nccnc4c3)nc3[nH]c(C4CC4)c(Cl)c23)C1 [700,978] | >64 | >64 | > 64 µg/mL
43 | CCc1[nH]c2nc(Oc3ccc4nccnc4c3)nc(Oc3ccc4c(N)nc(N)nc4c3)c2c1Br [700,979] | <=0.5 | 4 | > 64 µg/mL
44 | CCc1[nH]c2nc(Oc3ccc4nccnc4c3)nc(N3CC4C(C3)C4(N)C(N)=O)c2c1Br (stereo not drawn) [700,980] | <=0.5 | 2 | > 32 µg/mL
45 | CCc1[nH]c2nc(Oc3cncc(C#N)c3)nc(N3CC4C(C3)C4(N)C(N)=O)c2c1Cl (stereo not drawn) [700,981] | 16 | 16 | > 32 µg/mL
46 | CCc1[nH]c2nc(Oc3cncc(OC)c3)nc(Oc3cccc(C#N)c3)c2c1Br [700,982] | <=0.5 | <=0.5 | > 64 µg/mL
47 | CCc1[nH]c2nc(Sc3ccc4c(N5CCC(N)CC5)nc(C)nc4c3)nc(N3CC[C@@H](N)C3)c2c1Cl [700,983] | 32 | 32 | 32 µg/mL (≈ 59.5 µM)
48 | CCc1[nH]c2nc(Sc3ccc4c(N5CCC(N)CC5)nc(C)nc4c3)nc(N3CC4C(N)C4C3)c2c1Cl (stereo not drawn) [700,984] | 4 | 8 | 8 µg/mL (≈ 14.5 µM)
49 | CCc1[nH]c2nc(Sc3cnc4nccnc4c3)nc(N3CCC4(CC4N)C3)c2c1Cl (stereo not drawn) [700,986] | 1 | 2 | 64 µg/mL (≈ 141 µM)
50 | CCc1[nH]c2nc(Oc3ccc4nccnc4c3)nc(Oc3cncc(C#N)c3)c2c1Br [700,987] | <=0.5 | <=0.5 | > 64 µg/mL
51 | CCc1[nH]c2nc(Oc3ccc4nccnc4c3)nc(Oc3cnc4c(c3)ncn4C)c2c1Br [700,988] | <=0.5 | <=0.5 | > 64 µg/mL
52 | CCc1[nH]c2nc(Oc3ccc4nccnc4c3)nc(N3CC4C(C3)C4(N)C(N)=O)c2c1Cl (stereo not drawn) [700,989] | <=0.5 | <=0.5 | > 64 µg/mL
53 | CCc1[nH]c2nc(Sc3ccc4cc5c([n+]([O-])c4c3)CCNC5)nc(N3CCc4nc(N)sc4C3)c2c1Cl [700,990] | 1 | 16 | > 64 µg/mL
